Results: patent US7312181B2, “Acylated thiosemicarbazides as herbicides” (Cropsolution, Inc., priority 2005, dated 2007)

Tested on: Arabidopsis thaliana
Experiment: Plate-based in vivo herbicidal screen, Arabidopsis thaliana
Conditions: 192 h, seeds in 96-well plate, 27° C., 8 days, continuous fluorescent lighting, scored by visual inspection
Method: Plate-based in vivo screens were used to identify compounds with herbicidal activity. Three species of plants were used in screening: Arabidopsis thaliana, Agrostis sp. and Nicotinia tabacum (common tobacco). Test compounds in 1 μL of dimethylsulfoxide (DMSO) were delivered to individual wells of a 96-well microtiter plate. Growth media containing 10-15 seeds per 100 uL were then added. The growth media consisted of Murashige and Skoog Basal salt mixture, and 0.15% low melt agarose, all at a pH 6.2. The seeds remained neutrally buoyant and were easily pipettable at this concentration of low melt agarose. Each plate contained a column of untreated control wells in order to determine the false positive rate. The plates were covered and sealed and incubated at 27° C. for 8 days under continuous fluorescent lighting (155 umol/m^2/s). The plates were scored for herbicidal activity by visual inspection. Observed symptomology included growth inhibition, bleaching, leaf curling, and root growth inhibition. Six commercial herbicide standards were run concurrently with the experimental compounds as internal controls for assay sensitivity and plant response. The standards are described in Table 1 with their biochemical mode of action. The herbicidal activity of compositions in the present invention, presented as EC90 concentrations in the Arabidopsis thaliana screen, is tabulated in Table 2.

SMILES	EC90
O=C(NNC(=S)Nc1ccccc1C(F)(F)F)c1cccc(NC(=O)c2cccc(Cl)c2)c1 [Compound 7, 1-[3-(3-Chlorobenzamido)-benzoyl]-4-(2-trifluoromethylphenyl)-thiosemicarbazide]	1200 nM
O=C(NNC(=S)Nc1ccccc1Cl)c1cccc(NC(=O)c2cccc(F)c2)c1 [Compound 23, 4-(2-Chlorophenyl)-1-[3-(3-fluorobenzamido)-benzoyl]-thiosemicarbazide]	50 nM
O=C(NNC(=S)Nc1ccccc1Cl)c1cccc(NC(=O)c2cccc(Cl)c2)c1 [Compound 2, 1-[3-(3-Chlorobenzamido)-benzoyl]-4-(2-chlorophenyl)-thiosemicarbazide]	100 nM
O=C(NNC(=S)Nc1ccccc1Cl)c1cccc(NC(=O)c2cccc(C(F)(F)F)c2)c1 [Compound 12, 4-(2-Chlorophenyl)-1[3-(3-trifluoromethylbenzamido)-benzoyl]-thiosemicarbazide]	300 nM
O=C(NNC(=S)Nc1ccccc1F)c1cccc(NC(=O)c2cccc(Cl)c2)c1 [Compound 9, 1-[3-(3-Chlorobenzamido)-benzoyl]-4-(2-fluorophenyl)-thiosemicarbazide]	50 nM
O=C(NNC(=S)Nc1ccccc1)c1cccc(NC(=O)c2cccc(Cl)c2)c1 [Compound 6, 1-[3-(3-Chlorobenzamido)-benzoyl]-4-phenyl-thiosemicarbazide]	150 nM
O=C(Nc1cccc(C(=O)NNC(=S)Nc2ccccc2Cl)c1Cl)c1cccc(Cl)c1 [Compound 3, 1-[2-Chloro-3-(3-chloro-benzamido)-benzoyl]-4-(2-chlorophenyl)-thiosemicarbazide]	3300 nM
O=C(NNC(=S)Nc1ccccc1Cl)c1cccc(NC(=O)c2cc(F)ccc2F)c1 [Compound 22, 4-(2-Chlorophenyl)-1-[3-(2,5-difluorobenzamido)-benzoyl]-thiosemicarbazide]	50 nM
Cc1c(NC(=O)c2cccc(Cl)c2)cccc1C(=O)NNC(=S)Nc1ccccc1Cl [Compound 4, 1-[3-(3-Chlorobenzamido)-2-methylbenzoyl]-4-(2-chloro-phenyl)-thiosemicarbazide]	300 nM
O=C(Nc1cccc(C(=O)NNC(=S)Nc2ccccc2Cl)c1Cl)c1cccc(C(F)(F)F)c1 [Compound 14, 4-(2-Chlorophenyl)-1-[2-chloro-3-(3-trifluoromethylbenzamido)-benzoyl]-thiosemicarbazide]	300 nM
O=C(NNC(=S)Nc1ccccc1Cl)c1ccc(Cl)c(NC(=O)c2cccc(C(F)(F)F)c2)c1 [Compound 11, 4-(2-Chlorophenyl)-1-[4-chloro-3-(3-trifluoromethylbenzamido)-benzoyl]-thiosemicarbazide]	3300 nM
